Laboratory results reported in PubChem BioAssay AID256 (DTP/NCI, 2004).
Values joined by “and” are separate entries in the source; they are usually repeats but may differ in a detail not shown here. Equal entries are not always repeated. Inconclusive results and toxic doses are left out. The calls were made as follows: active = survival T/C of 150% or more; inactive = T/C below 125% in these data.

System: CD2F1 mice, L1210 leukemia ip, survival T/C
Assay: NCI In Vivo Anticancer Drug Screen. Data for tumor model L1210 Leukemia (intraperitoneal) in CD2F1 (CDF1) mice
Settings: higher = longer survival
In short: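 Read-out first: treated-group measurement over vehicle-control measurement, expressed as a ratio. Animals bore a transplanted tumor line and were dosed with compound or vehicle.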

[1] = endpoint: mean survival time, dose: 100.0 mg/kg/injection, schedule: Q01DX009 (ip), vehicle: saline with Tween-80
[2] = endpoint: mean survival time, dose: 200.0 mg/kg/injection, schedule: Q01DX009 (ip), vehicle: saline with Tween-80
[3] = endpoint: mean survival time, dose: 400.0 mg/kg/injection, schedule: Q01DX009 (ip), vehicle: saline with Tween-80
[4] = endpoint: mean survival time, dose: 50.0 mg/kg/injection, schedule: Q01DX009 (ip), vehicle: saline with Tween-80
[5] = endpoint: mean survival time, dose: 25.0 mg/kg/injection, schedule: Q01DX009 (ip), vehicle: saline with Tween-80
[6] = endpoint: mean survival time, dose: 100.0 mg/kg/injection, schedule: Q04DX003 (ip), vehicle: saline with Tween-80
[7] = endpoint: mean survival time, dose: 200.0 mg/kg/injection, schedule: Q04DX003 (ip), vehicle: saline with Tween-80
[8] = endpoint: mean survival time, dose: 400.0 mg/kg/injection, schedule: Q04DX003 (ip), vehicle: saline with Tween-80

Measured: T/C

Nc1ncnc2c1c1c(=S)[nH]c(=O)[nH]c1n2C1OC(CO)C(O)C1O (stereo not given)
inactive: endpoint: mean survival time, dose: 25.0 mg/kg/injection, schedule: Q01DX005 (ip), vehicle: distilled water + Tween-80 101 % of control | endpoint: mean survival time, dose: 50.0 mg/kg/injection, schedule: Q01DX005 (ip), vehicle: distilled water + Tween-80 106 % of control | endpoint: mean survival time, dose: 100.0 mg/kg/injection, schedule: Q01DX005 (ip), vehicle: distilled water + Tween-80 104 % of control

Clc1ccc2ccc(Cl)cc2c1
inactive: [1] 94 % of control | [2] 96 % of control | [3] 105 % of control

CCOC(=O)/N=[N+](\[O-])c1ccccc1
inactive: endpoint: median survival time, dose: 3.12 mg/kg/injection, schedule: Q01DX009 (ip), vehicle: saline with Tween-80 109 % of control | endpoint: median survival time, dose: 6.25 mg/kg/injection, schedule: Q01DX009 (ip), vehicle: saline with Tween-80 112 % of control | endpoint: median survival time, dose: 12.5 mg/kg/injection, schedule: Q01DX009 (ip), vehicle: saline with Tween-80 105 % of control

O=C(O)c1nn2c(=O)[nH]c3ccccc3c2c1C(=O)O
inactive: endpoint: mean survival time, dose: 12.5 mg/kg/injection, schedule: Q04DX002 (ip), vehicle: saline with Tween-80 90 % of control | endpoint: mean survival time, dose: 25.0 mg/kg/injection, schedule: Q04DX002 (ip), vehicle: saline with Tween-80 94 % of control | endpoint: mean survival time, dose: 50.0 mg/kg/injection, schedule: Q04DX002 (ip), vehicle: saline with Tween-80 87 % of control

O=C(OCC(I)CC(F)(F)C(F)(F)F)c1ccc2cc(C(=O)OC(I)CC(F)(F)C(F)(F)F)ccc2c1 (stereo not given)
inactive: endpoint: mean survival time, dose: 75.0 mg/kg/injection, schedule: Q01DX001 (ip), vehicle: other 101 % of control | endpoint: mean survival time, dose: 150.0 mg/kg/injection, schedule: Q01DX001 (ip), vehicle: other 91 % of control | endpoint: mean survival time, dose: 300.0 mg/kg/injection, schedule: Q01DX001 (ip), vehicle: other 97 % of control

O=c1cc2c(=O)oc3cc(O)c(O)oc3c2c(O)c1O
inactive: endpoint: mean survival time, dose: 100.0 mg/kg/injection, schedule: Q01DX001 (ip), vehicle: saline 101 % of control | endpoint: mean survival time, dose: 200.0 mg/kg/injection, schedule: Q01DX001 (ip), vehicle: saline 98 % of control | endpoint: mean survival time, dose: 400.0 mg/kg/injection, schedule: Q01DX001 (ip), vehicle: saline 98 % of control

COc1ccc2c(O)c(Cc3ccccc3)c(=O)oc2c1
inactive: [4] 112 % of control | [1] 103 % of control | [2] 103 % of control

NCC[Se][Se]CCN
inactive: endpoint: median survival time, dose: 1.56 mg/kg/injection, schedule: Q01DX009 (ip), vehicle: suspension in saline 98 % of control | endpoint: median survival time, dose: 3.13 mg/kg/injection, schedule: Q01DX009 (ip), vehicle: suspension in saline 105 % of control | endpoint: median survival time, dose: 6.25 mg/kg/injection, schedule: Q01DX009 (ip), vehicle: suspension in saline 108 % of control

CN(C)CCCN1c2ccc(O)cc2Sc2ccc(Cl)cc21
inactive: [5] 90 % of control | [4] 96 % of control | [1] 107 % of control

CC(=O)C(Cl)C(=O)c1c(C)[nH]n(-c2ccccc2)c1=O (stereo not given)
inactive: endpoint: median survival time, dose: 25.0 mg/kg/injection, schedule: Q01DX005 (ip), vehicle: Klucel (hydroxypropylcellulose) (HPC) 112 % of control | endpoint: median survival time, dose: 50.0 mg/kg/injection, schedule: Q01DX005 (ip), vehicle: Klucel (hydroxypropylcellulose) (HPC) 111 % of control | endpoint: median survival time, dose: 100.0 mg/kg/injection, schedule: Q01DX005 (ip), vehicle: Klucel (hydroxypropylcellulose) (HPC) 111 % of control

O=C(Nc1ccccc1F)Nc1cccc2ccccc12
inactive: [6] 98 % of control | [7] 101 % of control | [8] 96 % of control

CCOc1ccc(/C=C/c2ccc3ccccc3[n+]2C)cc1OCC
inactive: endpoint: mean survival time, dose: 25.0 mg/kg/injection, schedule: Q01DX001 (ip), vehicle: saline with Tween-80 102 % of control

COc1ccccc1OC(=O)CCl
inactive: [6] 111 % of control | [7] 101 % of control | [8] 88 % of control

CCOC(=O)C1C(=O)NCC1c1ccccc1 (stereo not given)
inactive: [4] 106 % of control | [1] 101 % of control | [2] 101 % of control

O=C1NC(=O)/C(=C/C=C/c2ccccc2)S1
inactive: endpoint: mean survival time, dose: 12.5 mg/kg/injection, schedule: Q01DX009 (ip), vehicle: saline with Tween-80 94 % of control and 101 % of control | [5] 95 % of control and 109 % of control | [4] 97 % of control and 101 % of control | [1] 98 % of control and 101 % of control | [2] 95 % of control and 103 % of control | [3] 104 % of control

Cc1cc(SC(=O)N(C)C)c(S(=O)(=O)F)cc1Cl
inactive: endpoint: mean survival time, dose: 100.0 mg/kg/injection, schedule: Q04DX002 (ip), vehicle: saline with Tween-80 87 % of control | endpoint: mean survival time, dose: 200.0 mg/kg/injection, schedule: Q04DX002 (ip), vehicle: saline with Tween-80 87 % of control | endpoint: mean survival time, dose: 400.0 mg/kg/injection, schedule: Q04DX002 (ip), vehicle: saline with Tween-80 93 % of control

O=Cc1cc(=O)[nH]c2ccccc12
inactive: [6] 96 % of control | [7] 98 % of control | [8] 100 % of control

CC(=O)OCC(OC(C)=O)C(OC(C)=O)C(OC(C)=O)C(OC(C)=O)OC(C)=O (stereo not given)
inactive: endpoint: mean survival time, dose: 100.0 mg/kg/injection, schedule: Q01DX001 (ip), vehicle: saline with Tween-80 94 % of control | endpoint: mean survival time, dose: 200.0 mg/kg/injection, schedule: Q01DX001 (ip), vehicle: saline with Tween-80 96 % of control | endpoint: mean survival time, dose: 400.0 mg/kg/injection, schedule: Q01DX001 (ip), vehicle: saline with Tween-80 96 % of control
